Laboratory results published in patent US20200231638A1, “STABILIZED ANTI-MICROBIAL PEPTIDES” (priority 2015, published 2020).
Bridge positions count the residues as written; N and C are the ends. Square brackets hold non-standard residues; d marks the D form. Peptide text beside a SMILES is read from it. S5 = C=CCCC[C@](C)(N)C(=O)O; Nle = CCCC[C@H](N)C(=O)O

Key:
[1] = tested on: E. coli; format: cell-based, Escherichia coli
Method in brief: (§1)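 Read-out is visible growth: the MIC is the lowest peptide concentration showing none after 20-24 hours at 37° C. Bacteria in refined (anion-exchanged) Mueller-Hinton broth were seeded at a final 5×10^5 CFU/ml onto water-based peptide serial dilutions.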

[2] = tested on: B. cereus; format: cell-based, Bacillus cereus
Method in brief: as §1

[3] = tested on: S. aureus; format: cell-based, Staphylococcus aureus
Method in brief: as §1

[4] = tested on: P. aeruginosa; format: cell-based, Pseudomonas aeruginosa
Method in brief: as §1

[5] = tested on: human red blood cells; format: cell-based; settings: red cells of human, 1 h, 25
Method in brief: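 Hemolysis expressed as absorbance of released hemoglobin (570 nm) normalized between untreated and 1% Triton-X100 controls, with MHC taken as peptide concentration giving under 1% release. Peptide dilutions were exposed for 1 h at 37° C to a 1% (v/v) suspension of washed human red cells in PBS.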

SMILES	MIC E. coli [1] [µg/mL]	MIC B. cereus [2] [µg/mL]	MIC S. aureus [3] [µg/mL]	MIC P. aeruginosa [4] [µg/mL]	% Hemolysis at 25 μg/ml [5] [%]
CCCC[C@H](NC(=O)[C@]1(C)CCCC=CCCC[C@](C)(NC(=O)[C@H](C)NC(=O)[C@H](CCCCN)NC(=O)CNC(=O)[C@H](Cc2ccccc2)NC(=O)[C@H](CCCCN)NC(=O)[C@H](CCCCN)NC(=O)[C@H](C)NC(=O)[C@H](CO)NC(=O)[C@H](Cc2c[nH]cn2)NC(=O)[C@H](CC(C)C)NC(=O)[C@H](Cc2ccccc2)NC(=O)[C@H](CCCCN)NC(=O)CNC(=O)[C@H](CCC(=O)O)NC(=O)CN)C(=O)N[C@@H](C(C)C)C(=O)NCC(=O)N[C@@H](CCC(=O)O)C(=O)N1)C(=O)N[C@@H](CC(N)=O)C(=O)N[C@@H](CO)C(N)=O [Mag(i + 4)15(I2E), GEGKFLHSAKKFGKAXVGEXBNS] (H-GEGKFLHSAKKFGKA[S5]VGE[S5][Nle]NS-NH2; staple 16-20)	12.5	>50	>50	>50	3.6
CCCC[C@H](NC(=O)[C@]1(C)CCCC=CCCC[C@](C)(NC(=O)[C@H](C)NC(=O)[C@H](CCCCN)NC(=O)CNC(=O)[C@H](Cc2ccccc2)NC(=O)[C@H](CCCCN)NC(=O)[C@H](CCCCN)NC(=O)[C@H](C)NC(=O)[C@H](CO)NC(=O)[C@H](Cc2c[nH]cn2)NC(=O)[C@H](CC(C)C)NC(=O)[C@H](Cc2ccccc2)NC(=O)[C@H](CCCCN)NC(=O)CNC(=O)[C@H](CCCCN)NC(=O)CN)C(=O)N[C@@H](C(C)C)C(=O)NCC(=O)N[C@@H](CCC(=O)O)C(=O)N1)C(=O)N[C@@H](CC(N)=O)C(=O)N[C@@H](CO)C(N)=O [Mag(i + 4)15(I2K), GKGKFLHSAKKFGKAXVGEXBNS] (H-GKGKFLHSAKKFGKA[S5]VGE[S5][Nle]NS-NH2; staple 16-20)	1.6	12.5	23	3.1	2.3
CCCC[C@H](NC(=O)[C@]1(C)CCCC=CCCC[C@](C)(NC(=O)[C@H](C)NC(=O)[C@H](CCCCN)NC(=O)CNC(=O)[C@H](Cc2ccccc2)NC(=O)[C@H](CCCCN)NC(=O)[C@H](CCCCN)NC(=O)[C@H](C)NC(=O)[C@H](CO)NC(=O)[C@H](Cc2c[nH]cn2)NC(=O)[C@H](CC(C)C)NC(=O)[C@H](Cc2ccccc2)NC(=O)[C@H](CCC(=O)O)NC(=O)CNC(=O)[C@@H](NC(=O)CN)[C@@H](C)CC)C(=O)N[C@@H](C(C)C)C(=O)NCC(=O)N[C@@H](CCC(=O)O)C(=O)N1)C(=O)N[C@@H](CC(N)=O)C(=O)N[C@@H](CO)C(N)=O [Mag(i + 4)15(K4E), GIGEFLHSAKKFGKAXVGEXBNS] (H-GIGEFLHSAKKFGKA[S5]VGE[S5][Nle]NS-NH2; staple 16-20)	12.5	50	>50	>50	2.2
CCCC[C@H](NC(=O)[C@]1(C)CCCC=CCCC[C@](C)(NC(=O)[C@H](C)NC(=O)[C@H](CCCCN)NC(=O)CNC(=O)[C@H](Cc2ccccc2)NC(=O)[C@H](CCCCN)NC(=O)[C@H](CCC(=O)O)NC(=O)[C@H](C)NC(=O)[C@H](CO)NC(=O)[C@H](Cc2c[nH]cn2)NC(=O)[C@H](CC(C)C)NC(=O)[C@H](Cc2ccccc2)NC(=O)[C@H](CCCCN)NC(=O)CNC(=O)[C@@H](NC(=O)CN)[C@@H](C)CC)C(=O)N[C@@H](C(C)C)C(=O)NCC(=O)N[C@@H](CCC(=O)O)C(=O)N1)C(=O)N[C@@H](CC(N)=O)C(=O)N[C@@H](CO)C(N)=O [Mag(i + 4)15(K10E), GIGKFLHSAEKFGKAXVGEXBNS] (H-GIGKFLHSAEKFGKA[S5]VGE[S5][Nle]NS-NH2; staple 16-20)	6.2	>50	>50	>50	2.4
CCCC[C@H](NC(=O)[C@]1(C)CCCC=CCCC[C@](C)(NC(=O)[C@H](C)NC(=O)[C@H](CCCCN)NC(=O)CNC(=O)[C@H](Cc2ccccc2)NC(=O)[C@H](CCCCN)NC(=O)[C@H](CCCCN)NC(=O)[C@H](C)NC(=O)[C@H](CO)NC(=O)[C@H](Cc2c[nH]cn2)NC(=O)[C@H](CC(C)C)NC(=O)[C@H](Cc2ccccc2)NC(=O)[C@H](CCCCN)NC(=O)CNC(=O)[C@@H](NC(=O)CN)[C@@H](C)CC)C(=O)N[C@@H](C(C)C)C(=O)NCC(=O)N[C@@H](CCC(=O)O)C(=O)N1)C(=O)N[C@@H](CCC(=O)O)C(=O)N[C@@H](CO)C(N)=O [Mag(i + 4)15(N22E), GIGKFLHSAKKFGKAXVGEXBES] (H-GIGKFLHSAKKFGKA[S5]VGE[S5][Nle]ES-NH2; staple 16-20)	3.1	12.5	25	12.5	3.4

Now from value to compound, other results behind:

MIC E. coli [1] [µg/mL]	MIC B. cereus [2] [µg/mL]	MIC S. aureus [3] [µg/mL]	MIC P. aeruginosa [4] [µg/mL]	SMILES	% Hemolysis at 25 μg/ml [5] [%]
3.1	6.2	25	12.5	CCCC[C@H](NC(=O)[C@]1(C)CCCC=CCCC[C@](C)(NC(=O)[C@H](C)NC(=O)[C@H](CCCCN)NC(=O)CNC(=O)[C@H](Cc2ccccc2)NC(=O)[C@H](CCCCN)NC(=O)[C@H](CCCCN)NC(=O)[C@H](C)NC(=O)[C@H](CO)NC(=O)[C@H](CCC(=O)O)NC(=O)[C@H](CC(C)C)NC(=O)[C@H](Cc2ccccc2)NC(=O)[C@H](CCCCN)NC(=O)CNC(=O)[C@@H](NC(=O)CN)[C@@H](C)CC)C(=O)N[C@@H](C(C)C)C(=O)NCC(=O)N[C@@H](CCC(=O)O)C(=O)N1)C(=O)N[C@@H](CC(N)=O)C(=O)N[C@@H](CO)C(N)=O [Mag(i + 4)15(H7E), GIGKFLESAKKFGKAXVGEXBNS] (H-GIGKFLESAKKFGKA[S5]VGE[S5][Nle]NS-NH2; staple 16-20)	2.9
1.6	3.1	6.2	3.1	CCCC[C@H](NC(=O)[C@]1(C)CCCC=CCCC[C@](C)(NC(=O)[C@H](C)NC(=O)[C@H](CCCCN)NC(=O)CNC(=O)[C@H](Cc2ccccc2)NC(=O)[C@H](CCCCN)NC(=O)[C@H](CCCCN)NC(=O)[C@H](C)NC(=O)[C@H](CO)NC(=O)[C@H](CCCCN)NC(=O)[C@H](CC(C)C)NC(=O)[C@H](Cc2ccccc2)NC(=O)[C@H](CCCCN)NC(=O)CNC(=O)[C@@H](NC(=O)CN)[C@@H](C)CC)C(=O)N[C@@H](C(C)C)C(=O)NCC(=O)N[C@@H](CCC(=O)O)C(=O)N1)C(=O)N[C@@H](CC(N)=O)C(=O)N[C@@H](CO)C(N)=O [Mag(i + 4)15(H7K), GIGKFLKSAKKFGKAXVGEXBNS] (H-GIGKFLKSAKKFGKA[S5]VGE[S5][Nle]NS-NH2; staple 16-20; N-terminus and C-terminus assumed)	3.1
6.2	12.5	50	>50	CCCC[C@H](NC(=O)[C@]1(C)CCCC=CCCC[C@](C)(NC(=O)[C@H](C)NC(=O)[C@H](CCCCN)NC(=O)CNC(=O)[C@H](Cc2ccccc2)NC(=O)[C@H](CCC(=O)O)NC(=O)[C@H](CCCCN)NC(=O)[C@H](C)NC(=O)[C@H](CO)NC(=O)[C@H](Cc2c[nH]cn2)NC(=O)[C@H](CC(C)C)NC(=O)[C@H](Cc2ccccc2)NC(=O)[C@H](CCCCN)NC(=O)CNC(=O)[C@@H](NC(=O)CN)[C@@H](C)CC)C(=O)N[C@@H](C(C)C)C(=O)NCC(=O)N[C@@H](CCC(=O)O)C(=O)N1)C(=O)N[C@@H](CC(N)=O)C(=O)N[C@@H](CO)C(N)=O [Mag(i + 4)15(K11E), GIGKFLHSAKEFGKAXVGEXBNS] (H-GIGKFLHSAKEFGKA[S5]VGE[S5][Nle]NS-NH2; staple 16-20)	2.9
50	>50	>50	>50	CCCC[C@H](NC(=O)[C@]1(C)CCCC=CCCC[C@](C)(NC(=O)[C@H](C)NC(=O)[C@H](CCCCN)NC(=O)CNC(=O)[C@H](Cc2ccccc2)NC(=O)[C@H](CCCCN)NC(=O)[C@H](CCCCN)NC(=O)[C@H](C)NC(=O)[C@H](CO)NC(=O)[C@H](Cc2c[nH]cn2)NC(=O)[C@H](CCC(=O)O)NC(=O)[C@H](Cc2ccccc2)NC(=O)[C@H](CCCCN)NC(=O)CNC(=O)[C@@H](NC(=O)CN)[C@@H](C)CC)C(=O)N[C@@H](C(C)C)C(=O)NCC(=O)N[C@@H](CCC(=O)O)C(=O)N1)C(=O)N[C@@H](CC(N)=O)C(=O)N[C@@H](CO)C(N)=O [Mag(i + 4)15(L6E), GIGKFEHSAKKFGKAXVGEXBNS] (H-GIGKFEHSAKKFGKA[S5]VGE[S5][Nle]NS-NH2; staple 16-20)	1.1
3.1	>50	>50	12.5	CCCC[C@H](NC(=O)[C@]1(C)CCCC=CCCC[C@](C)(NC(=O)[C@H](C)NC(=O)[C@H](CCCCN)NC(=O)CNC(=O)[C@H](Cc2ccccc2)NC(=O)[C@H](CCCCN)NC(=O)[C@H](CCCCN)NC(=O)[C@H](C)NC(=O)[C@H](CO)NC(=O)[C@H](Cc2c[nH]cn2)NC(=O)[C@H](CCCCN)NC(=O)[C@H](Cc2ccccc2)NC(=O)[C@H](CCCCN)NC(=O)CNC(=O)[C@@H](NC(=O)CN)[C@@H](C)CC)C(=O)N[C@@H](C(C)C)C(=O)NCC(=O)N[C@@H](CCC(=O)O)C(=O)N1)C(=O)N[C@@H](CC(N)=O)C(=O)N[C@@H](CO)C(N)=O [Mag(i + 4)15(L6K), GIGKFKHSAKKFGKAXVGEXBNS] (H-GIGKFKHSAKKFGKA[S5]VGE[S5][Nle]NS-NH2; staple 16-20)	1.9
